From the supplement of paper PMC11061612

Experiments:
Assay in all cases: Bliss excess, mean over the matrix (fraction); higher = more synergy
[1] = tested on: SK-LU-1 (Lung Adenocarcinoma)
In short: (§1)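 Bliss excess equals the observed combination effect minus the expected value EA + EB − EA·EB, where EA and EB are the effects of each agent alone. Combination Emax is the second-highest inhibition within the matrix. Inhibition was scaled from CellTiter-Glo 2.0 luminescence, with 0 set by vehicle wells and 1 by blank wells, after 72 hours of two-drug dosing of cells plated in 1536-well plates.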

[2] = tested on: NCI-H1092 (Small Cell Lung Carcinoma)
In short: as §1

[3] = tested on: OE33 (Esophageal Adenocarcinoma)
In short: as §1

[4] = tested on: EW-1 (Ewing's Sarcoma)
In short: as §1

[5] = tested on: SW982 (Other Solid Carcinomas)
In short: as §1

[6] = tested on: MOG-G-UVW (Low Grade Glioma)
In short: as §1

[7] = tested on: COLO-679 (Melanoma)
In short: as §1

[8] = tested on: Ca-Ski (Cervical Carcinoma)
In short: as §1

[9] = tested on: DU-145 (Prostate Carcinoma)
In short: as §1

[10] = tested on: LC-1-sq (Squamous Cell Lung Carcinoma)
In short: as §1

[11] = tested on: EJM (Plasma Cell Myeloma)
In short: as §1

[12] = tested on: SNU-387 (Hepatocellular Carcinoma)
In short: as §1

[13] = tested on: HCC1937 (Breast Carcinoma)
In short: as §1

[14] = tested on: KOPN-8 (B-Lymphoblastic Leukemia)
In short: as §1

[15] = tested on: HAL-01 (B-Lymphoblastic Leukemia)
In short: as §1

[16] = tested on: ME-180 (Cervical Carcinoma)
In short: as §1

[17] = tested on: KGN (Other Solid Carcinomas)
In short: as §1

[18] = tested on: SK-N-AS (Neuroblastoma)
In short: as §1

[19] = tested on: MDA-MB-453 (Breast Carcinoma)
In short: as §1

[20] = tested on: EFO-21 (Ovarian Carcinoma)
In short: as §1

Row | SMILES | Bliss excess [1] | Bliss excess [2] | Bliss excess [3] | Bliss excess [4] | Bliss excess [5] | Bliss excess [6] | Bliss excess [7] | Bliss excess [8] | Bliss excess [9] | Bliss excess [10] | Bliss excess [11] | Bliss excess [12] | Bliss excess [13] | Bliss excess [14] | Bliss excess [15] | Bliss excess [16] | Bliss excess [17] | Bliss excess [18] | Bliss excess [19] | Bliss excess [20]
1 | C=CCn1c(=O)c2cnc(Nc3ccc(N4CCN(C)CC4)cc3)nc2n1-c1cccc(C(C)(C)O)n1 [AZD1775] + C1CN(CCC1(C(=O)N[C@@H](CCO)C2=CC=C(C=C2)Cl)N)C3=NC=NC4=C3C=CN4 [Capivasertib] (first compound max 3 µM, partner max 3 µM) | 0.0164 | -0.0497 | -0.0326 | 0.0379 | -0.0415 | -0.0039 | -0.0625 | 0.0161 | -0.055 | -0.128 | -0.0041 | -0.0435 | -0.0385 | 0.0369 | -0.0528 | 0.0063 | -0.0195 | -0.0806 | -0.0524 | -0.0991
2 | NC1(C(=O)N[C@@H](CCO)c2ccc(Cl)cc2)CCN(c2ncnc3[nH]ccc23)CC1 [Capivasertib] + Cn1cnc2c(F)c(Nc3ccc(Br)cc3Cl)c(C(=O)NOCCO)cc21 [Selumetinib] (first compound max 10 µM, 7x7, partner max 10 µM) | -0.0486 | -0.0225 | 0.0301 | 0.0819 | 0.0235 | 0.0622 | -0.0912 | 0.0246 | 0.0037 | 0.0027 | 0.08 | -0.0521 | -0.0079 | 0.106 | 0.0548 | -0.0232 | -0.0041 | 0.0046 | 0.0079 | -0.0352
3 | NC1(C(=O)N[C@@H](CCO)c2ccc(Cl)cc2)CCN(c2ncnc3[nH]ccc23)CC1 [Capivasertib] + CC(C)n1c(=O)n(C)c2cnc3cc(F)c(-c4ccc(OCCCN5CCCCC5)nc4)cc3c21 [AZD1390] (first compound max 10 µM, 7x7, partner max 0.3 µM) | -0.0747 | -0.0596 | -0.0563 | -0.0622 | -0.0696 | -0.0278 | -0.116 | -0.0436 | -0.0598 | -0.0461 | -0.0543 | -0.101 | -0.0666 | -0.0611 | -0.0354 | -0.033 | -0.047 | -0.0657 | -0.0471 | -0.0361
4 | Cn1cnc2c(F)c(Nc3ccc(Br)cc3Cl)c(C(=O)NOCCO)cc21 [Selumetinib] + C=CCn1c(=O)c2cnc(Nc3ccc(N4CCN(C)CC4)cc3)nc2n1-c1cccc(C(C)(C)O)n1 [AZD1775] (first compound max 10 µM, partner max 1 µM) | 0.0035 | -0.0961 | -0.0911 | -0.0347 | -0.0112 | -0.0144 | -0.0285 | 0.0199 | 0.0039 | -0.095 | -0.0146 | -0.0766 | -0.0357 | 0.0681 | 0.0056 | -0.071 | -0.115 | 0.0024 | -0.0065 | -0.0834
5 | Cc1c2c(nn1C)CSCc1cc(n(C)n1)CSc1cc(c3ccccc3c1)OCCCc1c(C(=O)O)n(C)c3c-2c(Cl)ccc13 [AZD5991] + C[C@@H](Nc1cc(F)cc(F)c1)c1cc(C(=O)N(C)C)cc2c(=O)cc(N3CCOCC3)oc12 [AZD8186] (first compound max 1 µM, 7x7, partner max 3 µM) | 0.0004 | 0.0172 | -0.0003 | -0.0431 | -0.0261 | -0.0451 | 0.0127 | 0.0515 | -0.0204 | 0.0352 | -0.0129 | -0.0089 | -0.0001 | 0.0014 | 0.015 | -0.0244 | -0.0528 | -0.0122 | -0.0506 | -0.0522
6 | CC(=O)c1c(C)c2cnc(Nc3ccc(N4CCNCC4)cn3)nc2n(C2CCCC2)c1=O [Palbociclib] + CC1(C)CCC(CN2CCN(c3ccc(C(=O)NS(=O)(=O)c4ccc(NCC5CCOCC5)c([N+](=O)[O-])c4)c(Oc4cnc5[nH]ccc5c4)c3)CC2)=C(c2ccc(Cl)cc2)C1 [Venetoclax] (first compound max 10 µM, 7x7, partner max 1 µM) | 0.0024 | -0.0224 | -0.0458 | 0.0441 | -0.0508 | -0.0282 | -0.0676 | -0.0543 | -0.0406 | -0.0161 | -0.0211 | -0.0558 | -0.0578 | -0.0341 | -0.0461 | -0.0622 | 0.079 | -0.0354 | 0.0091 | -0.0638
7 | C=CCn1c(=O)c2cnc(Nc3ccc(N4CCN(C)CC4)cc3)nc2n1-c1cccc(C(C)(C)O)n1 [AZD1775] + O=C(c1cc(Cc2n[nH]c(=O)c3ccccc23)ccc1F)N1CCN(C(=O)C2CC2)CC1 [Olaparib] (first compound max 1 µM, partner max 10 µM) | -0.0306 | -0.0342 | 0.0117 | -0.0235 | -0.102 | -0.0329 | -0.0076 | -0.0474 | -0.073 | -0.0216 | -0.0429 | -0.075 | -0.0813 | -0.016 | -0.0542 | -0.0244 | -0.0844 | -0.0075 | -0.0441 | -0.0266
8 | COc1nnc2ccc(N3CCC(c4ccc(OCCN5CCN(C)C(=O)[C@H]5C)cc4)CC3)nn12 [AZD5153] + C[C@@H]1COCCN1C2=NC(=NC(=C2)C3(CC3)[S@](=N)(=O)C)C4=C5C=CNC5=NC=C4 [AZD6738] (first compound max 1 µM, 7x7, partner max 10 µM) | 0.0147 | 0.0493 | -0.0427 | 0.0041 | -0.0392 | -0.046 | 0.0003 | 0.0406 | -0.0094 | 0.0175 | 0.0187 | -0.0501 | -0.0516 | -0.0114 | -0.0737 | -0.0108 | -0.0865 | 0.002 | -0.0534 | -0.0069
9 | COc1nnc2ccc(N3CCC(c4ccc(OCCN5CCN(C)C(=O)[C@H]5C)cc4)CC3)nn12 [AZD5153] + Cn1cnc2c(F)c(Nc3ccc(Br)cc3Cl)c(C(=O)NOCCO)cc21 [Selumetinib] (first compound max 1 µM, 7x7, partner max 10 µM) | 0.0022 | -0.0592 | 0.0318 | 0.041 | -0.0039 | -0.0045 | -0.004 | 0.0324 | 0.0192 | 0.0073 | 0.0207 | 0.0012 | -0.0523 | 0.114 | 0.0347 | -0.019 | -0.002 | 0.0307 | -0.0141 | -0.0593
10 | Cc1c2c(nn1C)CSCc1cc(n(C)n1)CSc1cc(c3ccccc3c1)OCCCc1c(C(=O)O)n(C)c3c-2c(Cl)ccc13 [AZD5991] + CC1(C)CCC(CN2CCN(c3ccc(C(=O)NS(=O)(=O)c4ccc(NCC5CCOCC5)c([N+](=O)[O-])c4)c(Oc4cnc5[nH]ccc5c4)c3)CC2)=C(c2ccc(Cl)cc2)C1 [Venetoclax] (first compound max 1 µM, 7x7, partner max 1 µM) | -0.0368 | 0.117 | -0.0077 | 0.103 | -0.0312 | 0.0083 | -0.0218 | 0.0006 | -0.0185 | 0.0184 | 0.0164 | -0.0426 | -0.0208 | -0.102 | 0.0231 | 0.0131 | -0.0308 | 0.0857 | 0.0023 | -0.0608
11 | NC1(C(=O)N[C@@H](CCO)c2ccc(Cl)cc2)CCN(c2ncnc3[nH]ccc23)CC1 [Capivasertib] + CC(=O)c1c(C)c2cnc(Nc3ccc(N4CCNCC4)cn3)nc2n(C2CCCC2)c1=O [Palbociclib] (first compound max 10 µM, 7x7, partner max 10 µM) | -0.0139 | -0.0612 | -0.0055 | -0.0124 | -0.0523 | 0.0666 | -0.201 | 0.025 | -0.0272 | -0.0208 | -0.0189 | -0.0515 | -0.0236 | -0.0079 | -0.0425 | -0.0638 | 0.0128 | -0.0033 | 0.0753 | -0.0533
12 | CS(=O)(=O)CCNCc1ccc(-c2ccc3ncnc(Nc4ccc(OCc5cccc(F)c5)c(Cl)c4)c3c2)o1 [Lapatinib] + C[C@@H](Oc1cc(-c2cnn(C3CCNCC3)c2)cnc1N)c1c(Cl)ccc(F)c1Cl [Crizotinib] (first compound max 10 µM, 7x7, partner max 10 µM) | -0.0582 | 0.0103 | 0.151 | -0.0239 | -0.0579 | 0.0013 | -0.066 | -0.042 | -0.0242 | 0.0171 | -0.0001 | -0.0754 | -0.0404 | -0.0482 | -0.0265 | -0.0227 | -0.0702 | -0.0676 | 0.0232 | -0.0148
13 | CN(C)CCCOc1ccc(-c2ccc3ncc4c(c3c2)n(C2CCOCC2)c(=O)n4C)cn1 [AZD0156] + CCN(CCO)CCCOc1ccc2c(Nc3cc(CC(=O)Nc4cccc(F)c4)[nH]n3)ncnc2c1 [AZD2811] (first compound max 1 µM, 7x7, partner max 1 µM) | -0.0518 | -0.0102 | -0.0173 | 0.0446 | -0.0042 | 0.045 | -0.0093 | 0.008 | -0.0263 | 0.0392 | 0.0008 | -0.0569 | -0.0387 | 0.0535 | 0.0135 | -0.0143 | -0.0306 | -0.014 | -0.0208 | -0.0506
14 | CC(=O)c1c(C)c2cnc(Nc3ccc(N4CCNCC4)cn3)nc2n(C2CCCC2)c1=O [Palbociclib] + Cc1c2c(nn1C)CSCc1cc(n(C)n1)CSc1cc(c3ccccc3c1)OCCCc1c(C(=O)O)n(C)c3c-2c(Cl)ccc13 [AZD5991] (first compound max 10 µM, 7x7, partner max 1 µM) | -0.0693 | -0.0646 | -0.0041 | 0.0294 | -0.0151 | -0.0122 | -0.107 | -0.0239 | -0.0216 | -0.0587 | -0.0517 | -0.0515 | -0.0498 | 0.0082 | 0.0597 | -0.0545 | -0.0665 | -0.006 | -0.0218 | -0.0458
